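Following 48 hours of exposure in 96-well plates, responses at five concentrations were used to interpolate endpoints linearly. At the GI50, growth is halved.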 Calls of active or inactive are those of the source. No stated cut-off is given here; in the data, active = GI50 up to about 1.1 µM and inactive = higher.
Legend:
Experiment in all cases: growth of human tumour cells (NCI), 48 h
ACHN = test system: ACHN
CCRF-CEM = test system: CCRF-CEM
COLO 205 = test system: COLO 205
HL-60 = test system: HL-60
HOP-62 = test system: HOP-62
M14 = test system: M14
MOLT-4 = test system: MOLT-4
Malme-3M = test system: Malme-3M
NCI-H226 = test system: NCI-H226
NCI-H460 = test system: NCI-H460
RPMI-8226 = test system: RPMI-8226
SK-MEL-28 = test system: SK-MEL-28
SK-MEL-2 = test system: SK-MEL-2
SN12C = test system: SN12C
SNB-19 = test system: SNB-19
U-251 = test system: U-251
UACC-257 = test system: UACC-257
UACC-62 = test system: UACC-62
HCT-116 = test system: HCT-116

Measured: GI50

NC(=O)c1csc(C2OC(COP(=O)(O)CP(=O)(O)OCC3OC(n4cnc5c(N)ncnc54)C(O)C3O)C(O)C2O)n1 (stereo not given)
inactive: ACHN > 100 µM | CCRF-CEM > 100 µM | COLO 205 91.2 µM | HL-60 > 100 µM | HOP-62 > 100 µM | M14 > 100 µM | MOLT-4 > 100 µM | Malme-3M > 100 µM | NCI-H226 > 100 µM | NCI-H460 > 100 µM | RPMI-8226 > 100 µM | SK-MEL-28 > 100 µM | SK-MEL-2 > 100 µM | SN12C > 100 µM | SNB-19 > 100 µM | U-251 > 100 µM | UACC-257 > 100 µM | UACC-62 > 100 µM

c1ccc2c(c1)Oc1cccc3cccc-2c13
inactive: ACHN > 100 µM | CCRF-CEM > 100 µM | COLO 205 > 100 µM | HCT-116 > 100 µM | HL-60 > 100 µM | HOP-62 > 100 µM | M14 > 100 µM | MOLT-4 98.2 µM | Malme-3M > 100 µM | NCI-H226 > 100 µM | NCI-H460 > 100 µM | RPMI-8226 > 100 µM | SK-MEL-28 > 100 µM | SK-MEL-2 > 100 µM | SN12C > 100 µM | SNB-19 > 100 µM | U-251 > 100 µM | UACC-257 > 100 µM | UACC-62 > 100 µM

CN(C)C1(N(C)C)Oc2c(c(=O)n(C)c(=O)n2C)C(c2ccccc2)C1(F)F (stereo not given)
inactive: ACHN > 100 µM | CCRF-CEM > 100 µM | COLO 205 > 100 µM | HCT-116 > 100 µM | HOP-62 > 100 µM | M14 > 100 µM | MOLT-4 > 100 µM | NCI-H226 > 100 µM | NCI-H460 > 100 µM | RPMI-8226 > 100 µM | SK-MEL-28 > 100 µM | SK-MEL-2 > 100 µM | SNB-19 > 100 µM | U-251 > 100 µM | UACC-257 > 100 µM | UACC-62 > 100 µM

NC(=O)Cc1nc2c(O)ncnc2n1C1OC(CO)C(O)C1O (stereo not given)
inactive: ACHN > 100 µM | CCRF-CEM > 100 µM | COLO 205 > 100 µM | HCT-116 > 100 µM | HL-60 > 100 µM | HOP-62 > 100 µM | M14 > 100 µM | MOLT-4 > 100 µM | Malme-3M > 100 µM | NCI-H226 > 100 µM | NCI-H460 > 100 µM | RPMI-8226 > 100 µM | SK-MEL-28 > 100 µM | SK-MEL-2 > 100 µM | SN12C > 100 µM | SNB-19 > 100 µM | U-251 > 100 µM | UACC-257 > 100 µM | UACC-62 > 100 µM

N#Cc1nc2cc(Cl)ccc2nc1N1CCN(c2ccc([N+](=O)[O-])cc2)CC1
inactive: ACHN > 100 µM | COLO 205 > 100 µM | HCT-116 > 100 µM | HOP-62 > 100 µM | M14 > 100 µM | MOLT-4 > 100 µM | NCI-H460 > 100 µM | RPMI-8226 > 100 µM | SK-MEL-28 > 100 µM | SN12C > 100 µM | SNB-19 > 100 µM | U-251 > 100 µM | UACC-257 > 100 µM | UACC-62 > 100 µM

COc1ccccc1C(N)c1ccccc1 (stereo not given)
inactive: ACHN > 100 µM | CCRF-CEM > 100 µM | COLO 205 > 100 µM | HCT-116 > 100 µM | HL-60 > 100 µM | HOP-62 > 100 µM | M14 > 100 µM | MOLT-4 > 100 µM | Malme-3M > 100 µM | NCI-H226 > 100 µM | NCI-H460 > 100 µM | RPMI-8226 > 100 µM | SK-MEL-28 > 100 µM | SN12C > 100 µM | SNB-19 > 100 µM | U-251 > 100 µM | UACC-257 > 100 µM | UACC-62 > 100 µM

COC(C)(C)C(O)C(O)C[C@H](C)C1CC=C2C1(C)CCC1[C@@]3(C)CCC(OC(C)=O)C(C)(C)C3CC(OC3OC(COC(C)=O)C(O)C(O)C3O)[C@@]21C (stereo not given in full)
inactive: ACHN 3.87 µM | CCRF-CEM 3 µM | COLO 205 1.99 µM | HCT-116 3 µM | HL-60 2.59 µM | HOP-62 3.98 µM | M14 3.15 µM | MOLT-4 1.93 µM | Malme-3M 5.55 µM | NCI-H226 5.21 µM | NCI-H460 3.24 µM | RPMI-8226 2.07 µM | SK-MEL-28 4.57 µM | SN12C 4.2 µM | SNB-19 5.01 µM | U-251 4.37 µM | UACC-257 3.02 µM | UACC-62 2.76 µM

COc1cc(/C=N/n2c(C)n[nH]c2=O)cc(OC)c1OC
inactive: ACHN > 100 µM | CCRF-CEM 89.5 µM | COLO 205 > 100 µM | HCT-116 > 100 µM | HOP-62 > 100 µM | M14 > 100 µM | MOLT-4 > 100 µM | Malme-3M > 100 µM | NCI-H226 > 100 µM | NCI-H460 > 100 µM | SK-MEL-28 > 100 µM | SK-MEL-2 > 100 µM | SN12C > 100 µM | SNB-19 > 100 µM | U-251 > 100 µM | UACC-257 > 100 µM | UACC-62 63.1 µM

Cn1ncc2cc3c(Nc4ccc(Cl)cc4)cccc3nc21
inactive: ACHN 15 µM | CCRF-CEM 15.1 µM | COLO 205 13.7 µM | HL-60 11 µM | HOP-62 15 µM | M14 18.8 µM | MOLT-4 6.82 µM | Malme-3M 23 µM | NCI-H460 8.61 µM | RPMI-8226 10.9 µM | SK-MEL-28 15.1 µM | SK-MEL-2 22.6 µM | SN12C 18.1 µM | SNB-19 37.8 µM | UACC-257 18.9 µM | UACC-62 15.1 µM

CC1=NN(C(=O)CC(=O)N(C(=O)c2ccccc2)c2ccc(Cl)cc2)C(=O)C1/N=N/c1ccc([N+](=O)[O-])cc1 (stereo not given)
inactive: ACHN > 10 µM | CCRF-CEM > 10 µM | COLO 205 > 10 µM | HCT-116 > 10 µM | HL-60 > 10 µM | HOP-62 > 10 µM | MOLT-4 6.49 µM | Malme-3M > 10 µM | NCI-H226 > 10 µM | NCI-H460 > 10 µM | RPMI-8226 > 10 µM | SK-MEL-28 > 10 µM | SK-MEL-2 > 10 µM | SN12C > 10 µM | SNB-19 > 10 µM | U-251 > 10 µM | UACC-257 > 10 µM | UACC-62 > 10 µM

COC(=O)C1C2CC3C1C3C2C(=O)OC (stereo not given)
inactive: ACHN > 100 µM | CCRF-CEM > 100 µM | COLO 205 > 100 µM | HCT-116 > 100 µM | HOP-62 > 100 µM | M14 > 100 µM | MOLT-4 > 100 µM | Malme-3M > 100 µM | NCI-H226 > 100 µM | NCI-H460 > 100 µM | SK-MEL-28 > 100 µM | SK-MEL-2 > 100 µM | SN12C > 100 µM | SNB-19 > 100 µM | U-251 > 100 µM | UACC-257 > 100 µM | UACC-62 > 100 µM
